Results as given in patent EP1588698A2, “A process for the production and screening of materials for use in pharmaceutical aerosol formulations” (Thompson, James Anthony, priority 2004, dated 2005).

What was measured:
Format in all cases: physicochemical
[1] = Screening of salt derivative solubility in ethanol co-solvent
Description: Solubility, of a drug salt derivative, to an appreciable extent, in solvents miscible with the propellant(s) provides a simple yet robust screening method.
The co-solvent used to screen derivative solubility and formulation approach was ethanol. […] A comprehensive list can be taken from texts such as the handbook of pharmaceutical excipients. Ethanol and water mixtures may be utilised. For solution aerosols a single phase is required when in the final formulation, but equally a suspension or emulsion may results and be utilised. As the model bronchodilator was a basic compound acids requisite for salt formation (from pKa values) were selected. […] The solvent necessary to facilitate dissolution is assumed to be of sufficient dielectric constant and an ideal solvent, although skilled practitioners will endeavor to try a range of solvents as formulation science is empirical. Other examples of suitable acids are acetate, benzenesulphonate, mesylate etc, and can be sought from any suitable text: Martindale 2005. […] Preferentially precipitated or solvated species may result from careful selection of reagents and forms of the active described. Preferentially precipitated or solvated compounds can be isolated either in bulk or in-situ for use.
Two non-limiting examples of use of the manufacture/ screening method are described below.

[2] = Cascade impactor particle size and deposition under controlled temperature and relative humidity
Description: Formulations of salt derivatives whether prepared by the following method but any suitable method can be utilise. Plastic coated glass pMDI bottles (St Gobain, France) were weighed on a balance and tared after first undergoing a rinse with clean and dry compressed air. Drug was weighed accurately by difference in order to give an equivalent of 100mcg freebase as related to molecular mass of the salt and the same procedure repeated for absolute ethanol (Fisher scientific). A continuous […] on (Bespak, Kings Lynn, UK), according to manufacturers specifications and the bottle then sonicated (Decon FS 3006) for several minutes to induce complete dissolution of the drug. The bottle was then dried and once again tared on the balance. HFA 134(a) was subsequently charged through the valve using a Pamasol 2002 hand […] (DH Industries, Laindon, Essex, UK). The final formulation preparation was sonicated for a further several minutes for completeness. Formulations were then stored at specified temperatures and assessed periodically. All solutions were prepared in duplicate. 10% w/w ethanol : 90% w/w HFA 134(a) formulations were prepared. This is in no way intended to limit the extent of the formulations. Solutions were tested for particle size using a cascade impactor, which to that practitioner skilled is standardised method for determining particle size distributions, under conditions of thermal and environmental control. Figures 9-12 illustrate the invention from particle size results. […] It is therefore an embodiment to use derivatives to utilise derivatives not known to optimise deposition.

[3] = Stability of ethanol / HFA 134(a) pMDI formulations in plastic coated glass bottles; details: ethanol co-solvent in HFA 134(a); equivalent to 100mcg of free base per actuation
Description: The solid compound is then isolated by a suitable method. Figures 3 and 4 indicates the solubility profiles of the respective salts synthesised. […] The mass of derivative was formulated at a level to give an equivalent to 100mcg of free base per actuation from the metering valve. Results from the formulations are depicted in figure 5 for the maleate salt 6 for the oleate salt and 7 to illustrate the precipitation technique by 7 controlled precipitation by the use of a second antisolvent: water on formulations of salbutamol maleate. […] Skilled artisans may endeavour to include surfactants or further co-solvents to enhance solubility. Such excipients may include but not be limited to conventional surfactants: Brij's Tween's lecithins polyvinylpyrollidone and those described in suitable pharmaceutical excipients handbooks. Figures 5, 6 (maleate salt side and plan views) and 7 (oleate salt arrows indicate crystals) illustrate 134(a) as an antisolvent as the drug […] from solution. The particle size of each drug is different, which leads to an embodiment of invention: use of derivative, co-solvent level, excipients level and antisolvent concentrations to precipitate actives to a desired particle size by careful moderation of the components. […] Formulations were then stored at specified temperatures and assessed periodically. […]

[4] = Morphology of particles deposited from pMDI (SEM, impactor plate); details: lab ambient, without a liquid air interface

| Substance | solubility in ethanol [1] | behaviour of the salt in ethanol solution (stable or precipitates) ([1]; ethanol reaction solution) | %Deposited at Location ACTUATOR ([2]; HT/HRH) [%] | %Deposited at Location FPF ([2]; HT/HRH) [%] | %Deposited at Location THROAT ([2]; HT/HRH) [%] | %Deposited at Location ACTUATOR ([2]; HT/LRH) [%] | %Deposited at Location FPF ([2]; HT/LRH) [%] | %Deposited at Location THROAT ([2]; HT/LRH) [%] | %Deposited at Location ACTUATOR ([2]; LT/HRH) [%] | %Deposited at Location FPF ([2]; LT/HRH) [%] | %Deposited at Location THROAT ([2]; LT/HRH) [%] | %Deposited at Location ACTUATOR ([2]; LT/LRH) [%] | %Deposited at Location FPF ([2]; LT/LRH) [%] | %Deposited at Location THROAT ([2]; LT/LRH) [%] | co-solvent level at which stable solution formulations achievable [3] [% w/w] | particle morphology on deposition [4] |
| --- | --- | --- | --- | --- | --- | --- | --- | --- | --- | --- | --- | --- | --- | --- | --- | --- |
| salbutamol fumarate | NB the Fumarate was insoluble in ethanol even though its only difference to the maleate was the trans arrangement of the carboxylic acid groups. |  |  |  |  |  |  |  |  |  |  |  |  |  |  |  |
| Salbutamol cis-butenedioate (Maleate) | ethanol soluble | stable as a solution in ethanol, even at ultra low temperatures | 27.35 | 57.42 | 11.78 | 22.00 | 63.24 | 12.74 | 16.33 | 52.88 | 25.96 | 8.97 | 42.76 | 44.24 | 15 |  |
| Salbutamol cis-octadecenoate (Oleate) |  |  | 20.37 | 67.00 | 7.52 | 16.74 | 67.87 | 7.70 | 19.54 | 67.43 | 8.82 | 6.86 | 72.33 | 17.29 | 30 | spread as a surfactant |
